Source: patent US10959992B2, “Methods of treatment of asthma and COPD” (Bridge Pharma, Inc., priority 2019, dated 2021)
Values after ≈ are worked out from the molar mass of the structure shown. Like-named read-outs stand apart in the source and are kept apart here.

Columns and labels:
[1] = Plasma concentration after sc infusion (follow-up study); type: in vivo; details: Sprague-Dawley, rat, 1 mg/kg/day, after sc infusion of RS-norketotifen for 5 days, rats
[2] = Lung/plasma distribution of norketotifen in rats; type: in vivo, SPD rats; details: for Kp: male, SPD, rat, lung/plasma, 20 mg/kg/day; for Lung Concentration / Plasma Concentration: rats
Experimental: Groups of male SPD rats (200-230 g) were administered racemic norketotifen hydrogen Fumarate 20 mg/kg/day (=14.4 mg/kg/day of the free base) for 10 consecutive days. Lung and plasma samples were collected and prepared and the concentrations of RS-norketotifen were determined using a qualified LC-MS-MS analytical method. LLQ (Lowest Level of Quantification) was <0.5 ng/ml.

[3] = tested on: croton oil-induced ear swelling; test: Croton oil-induced ear swelling; type: in vivo, CD-1 female mice; design: Average ear thickness: unit not given beside the values; details: for Average ear thickness: single oral dose 10 mg/kg 60 min before
Experimental: The effects of NK, PRED and the vehicle (5% PEG in water) were tested orally in CD-1 female mice. Under the test protocol, 20 μl of 1.0% croton oil in acetone was applied topically to both ears of three groups of mice, each group consisting of 6 mice. No attempt was made to remove the croton oil solution since the solvent evaporated within 30 seconds. The oral doses of NK and PRED were 10 mg/kg (10 ml/kg) bodyweight for both compounds and were administered 60 min before the croton oil applications. Vehicle-treated mice were dosed 10 ml/kg of water, containing 5% polyethylene glycol (PEG), which was also the solvent for the test articles. Ear thickness was measured with an electronic caliper and mean ear thickness (N=12; right+left ears) were calculated and compared with the thickness of ears from vehicle-treated mice (Student's t-test).

Malassezia pachydermatis = test: Antimicrobial activity (MIC), Malassezia pachydermatis; type: cell-based; details: Fungi: Mp, MIC refers to lethal concentrations
Candida albicans = test: Antimicrobial activity (MIC), Candida albicans; type: cell-based; details: Fungi: Ca, MIC refers to lethal concentrations
[4] = tested on: Trichophyton interdigitale; test: Antimicrobial activity (MIC), Trichophyton interdigitale; type: cell-based; details: Mold: Ti, MIC refers to lethal concentrations
[5] = tested on: Methicillin-resistant S. aureus; test: Antimicrobial activity (MIC), MRSA; type: cell-based; details: Staphylococcus aureus; Bacteria: MRSA; MIC refers to lethal concentrations
[6] = tested on: Staphylococcus intermedius; test: Antimicrobial activity (MIC), Staphylococcus intermedius; type: cell-based; details: Bacteria: Si, MIC refers to lethal concentrations
Haemophilus influenza = test: Antimicrobial activity (MIC), Haemophilus influenza; type: cell-based; details: Bacteria: Hi, MIC refers to lethal concentrations
Moraxella catarrhalis = test: Antimicrobial activity (MIC), Moraxella catarrhalis; type: cell-based; details: Bacteria: Mc, MIC refers to lethal concentrations
human M-3 (hM3) receptor = human M-3 (hM3) receptor (Homo sapiens, UniProt P20309); test: Muscarinic M-3 receptor binding assay; details: calculated from mean values, as norketotifen free base; NK hydrogen fumarate tested in duplicates, 1.0E-08M to 1.0E-04M
Sequence of human M-3 (hM3) receptor (P20309 whole entry): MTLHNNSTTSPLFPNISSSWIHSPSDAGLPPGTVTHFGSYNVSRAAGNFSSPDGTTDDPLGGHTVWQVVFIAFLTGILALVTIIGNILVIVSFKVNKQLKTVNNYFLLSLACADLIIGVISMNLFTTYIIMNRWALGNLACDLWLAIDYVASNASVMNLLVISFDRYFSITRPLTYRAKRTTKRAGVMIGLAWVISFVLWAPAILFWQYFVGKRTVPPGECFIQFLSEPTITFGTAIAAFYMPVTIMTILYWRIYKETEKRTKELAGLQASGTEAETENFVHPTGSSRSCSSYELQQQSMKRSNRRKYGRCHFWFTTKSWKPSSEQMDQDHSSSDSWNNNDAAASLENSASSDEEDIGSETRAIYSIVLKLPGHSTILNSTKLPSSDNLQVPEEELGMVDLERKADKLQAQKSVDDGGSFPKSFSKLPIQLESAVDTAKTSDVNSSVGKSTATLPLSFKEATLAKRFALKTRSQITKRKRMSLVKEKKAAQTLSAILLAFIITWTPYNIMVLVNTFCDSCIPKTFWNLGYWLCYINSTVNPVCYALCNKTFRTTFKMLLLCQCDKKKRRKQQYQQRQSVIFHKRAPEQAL
Description: The current study used human M-3 (hM3) receptor and NK hydrogen fumarate was the antagonist in the current studies. The study used NK in duplicates at five dose-levels from 1.0E-08M to 1.0E-04M.

IL-6 = test: PHA-induced release of IL-6 from human buffy coats; type: cell-based; details: PHA 5 μg/ml, 16 hours, inhibition
Experimental: (§1) The study was conducted in two phases. The first phase included optimization of the test methodology and included also dose-range finding studies, using buffy coats from 3 human donors, stimulated with phytohemagglutinin (PHA). The concentrations of the test article and the duration of exposure were optimized to obtain acceptable dose-response ratios. Following optimization of the test conditions, a final protocol was issued. In the Main Study, buffy coats from 5 healthy human male donors were stimulated with PHA, 5 μg/ml.
(§2) The inhibitory effects of three concentrations of NK and one concentration of ketotifen were evaluated in the Main Study. The buffy coats were resuspended in assay media and were pre-incubated for 30 min with either vehicle/saline, ketotifen (10 μM) or norketotifen (1.0; 10 or 100 μM). Following these preincubations, the white blood cell suspensions were stimulated for 16 hours with PHA, 5 μg/ml. The cell system supernatants were then harvested and stored frozen.

IL-4 = test: PHA-induced release of IL-4 from human buffy coats; type: cell-based; details: PHA 5 μg/ml, 16 hours, inhibition
Experimental: as §1, §2

IL-2 = test: PHA-induced release of IL-2 from human buffy coats; type: cell-based; details: PHA 5 μg/ml, 16 hours, inhibition
Experimental: as §1, §2

IFN-γ = test: PHA-induced release of IFN-γ from human buffy coats; type: cell-based; details: PHA 5 μg/ml, 16 hours, inhibition
Experimental: as §1, §2

IL-8 = test: PHA-induced release of IL-8 from human buffy coats; type: cell-based; details: PHA 5 μg/ml, 16 hours, inhibition
Experimental: as §1, §2

Water solubility = type: physicochemical
immune system = test: Repeat-dose toxicology studies, signs of immune system suppression; type: in vivo; details: repeat-dose toxicology studies: hematology, clinical chemistry, histopathology, organ and body weight indicators
sedation [7] = details: art-accepted mouse model of sedation; U.S. Pat. Nos. 7,226,934 and 7,557,128; cited from earlier work
sedation [8] = details: orally administered, dogs; U.S. Pat. No. 8,557,846; cited from earlier work
sedation [9] = details: orally administered, humans; U.S. Pat. Nos. 9,138,431 and 9,345,697; cited from earlier work
[10] = Dose Day 4, once daily oral 14.4 mg/kg free base
[11] = Dose Day 7, once daily oral 14.4 mg/kg free base
[12] = Last dose + 24 hrs, once daily oral 14.4 mg/kg free base for 10 days
[13] = Last dose, Day 10, once daily oral 14.4 mg/kg free base

## O=C1Cc2ccccc2C(=C2CCNCC2)c2ccsc21 (racemic) [norketotifen]
[1]
  concentration at 5 days: 4 ± 0.24 ng/mL
[2]; oral, Dose Day 4, read-out: Lung/Plasma Ratio in Rats
  Kp: 133
[2]; oral, Dose Day 7, read-out: Lung/Plasma Ratio in Rats
  Kp: 92
[2]; oral, Last dose + 24 hrs, read-out: Lung/Plasma Ratio in Rats
  Kp: 107
[2]; oral, Last dose, Day 10, read-out: Lung/Plasma Ratio in Rats
  Kp: 79
[2]; po, mean of the four study days, oral dosing, read-out: Lung/Plasma Ratio in Rats, Mean ± SEM
  Kp: 103
[2]; mean of the four study days, oral dosing
  Lung/Plasma Ratio in Rats, Mean ± SEM: 100
[2]; mean of the four study days, oral dosing, listed as NK
  Lung/Plasma Ratio in Rats, Mean ± SEM: 103 ± 11.6
[2]; mean of the four study days, oral dosing, listed as RS-norketotifen
  Lung/Plasma Ratio in Rats, Mean ± SEM: ~100
[2]; [10]
  Lung Concentration: 23612 ng/g
  Plasma Concentration: 178 ng/mL
[2]; [11]
  Lung Concentration: 25355 ng/g
  Plasma Concentration: 276 ng/mL
[2]; [12]
  Lung Concentration: 890 ng/g
  Plasma Concentration: 8.3 ng/mL
[2]; [13]
  Lung Concentration: 18171 ng/g
  Plasma Concentration: 229 ng/mL
[3]; 0 (predose) min after croton oil, vehicle 0.21 ± 0.02
  Average ear thickness: 0.21 ± 0.02
[3]; 90 min after croton oil, vehicle 0.29 ± 0.04
  Average ear thickness: 0.24 ± 0.02
[3]; 120 min after croton oil, vehicle 0.28 ± 0.02
  Average ear thickness: 0.25 ± 0.02
[3]; single oral dose 10 mg/kg, croton oil ear swelling in mice
  Anti-inflammatory effect compared with vehicle control group (conclusion in words): statistically significant anti-inflammatory effects
Malassezia pachydermatis
  MIC: 1000 µg/mL (≈ 3390 µM)
Candida albicans
  MIC: 1000 µg/mL (≈ 3390 µM)
[4]
  MIC: 500 µg/mL (≈ 1690 µM)
[5]
  MIC: 2000 µg/mL (≈ 6770 µM)
[6]
  MIC: 250 µg/mL (≈ 846 µM)
Haemophilus influenza
  MIC: about 0.25 mg/mL
Haemophilus influenza; Haemophilus, read-out: MIC
  MIC: 250 µg/mL (≈ 846 µM)
Moraxella catarrhalis
  MIC: 250 µg/mL (≈ 846 µM)
Moraxella catarrhalis; Moraxella catarrhalis, read-out: MIC
  MIC: 250 µg/mL (≈ 846 µM)
Human M-3 (hM3) receptor
  Ki: 2200 nM
IL-6; 1 uM
  Effect on PHA-induced release of IL-6 (%): 0.00%
IL-6; 10 uM
  Effect on PHA-induced release of IL-6 (%): 33.13^1%
IL-6; 100 uM
  Effect on PHA-induced release of IL-6 (%): 88.16^1%
IL-4; 1 uM
  Effect on PHA-induced release of IL-4 (%): 0.00%
IL-4; 10 uM
  Effect on PHA-induced release of IL-4 (%): 14.32%
IL-4; 100 uM
  Effect on PHA-induced release of IL-4 (%): 98.27^1%
IL-2; 1 uM
  Effect on PHA-induced release of IL-2 (%): 0.00%
IL-2; 10 uM
  Effect on PHA-induced release of IL-2 (%): 46.63^1%
IL-2; 100 uM
  Effect on PHA-induced release of IL-2 (%): 93.47^1%
IFN-γ; 1 uM
  Effect on PHA-induced release of IFN-γ (%): 0.00%
IFN-γ; 10 uM
  Effect on PHA-induced release of IFN-γ (%): 16.54^2%
IFN-γ; 100 uM
  Effect on PHA-induced release of IFN-γ (%): 71.56^1%
IL-8; 1 uM
  Effect on PHA-induced release of IL-8 (%): 10.29^2%
IL-8; 10 uM
  Effect on PHA-induced release of IL-8 (%): 34.36^1%
IL-8; 100 uM
  Effect on PHA-induced release of IL-8 (%): 78.29^1%
Water solubility
  Water solubility: about 2%
Water solubility; water
  solubility: ~20 mg/mL (≈ 67700 µM)
Immune system
  Signs of immune system suppression: no signs of immune system suppression
Sedation [7]
  Sedative effects: significant sedative effects
Sedation [8]
  Sedative side effects: free from sedative side effects
Sedation [9]
  Sedative side effects: free from sedative side effects
